Source: PMC10629583, “Specific inhibition of an anticancer target, polo-like kinase 1, by allosterically dismantling its mechanism of substrate recognition” (Proceedings of the National Academy of Sciences of the …, 2023)

Assays:
[1] = system: mGFP-Plk1 F559D at centrosomes, U2OS cells; test: Confocal quantification of Pendo-mGFP-Plk1 F559D in U2OS cells (siPlk1); format: cell-based; conditions: U2OS siPlk1, 8 μM, 2 or 16 h
Description: To corroborate the importance of the F559 residue for Allopole-A binding, U2OS cells expressing endogenous promoter (i.e., Pendo)-controlled mGFP-Plk1 WT or F559D mutant were depleted of endogenous Plk1 by RNAi for 48 h (SI Appendix, Fig. S4C), treated with control DMSO or 8 μM of Allopole for 2 or 16 h, and fixed (SI Appendix, Fig. S4D). Afterward, the level of mGFP fluorescence was quantified using confocal microscopy (Fig. 4 C and D). As expected from the results shown in Fig. 1 C and D, Allopole delocalized mGFP-Plk1 WT from centrosomes within 2 h after treatment, and this effect was sustained for up to 16 h. […] This could be attributable to the fact that unlike PBIP1, which binds to PBD1 through the self-priming and binding mechanism ([49]), Bub1, BubR1, and likely Cdc25C require Cdc2-dependent priming phosphorylation to interact with PBD1 ([42]–[44]). […]
Confocal images of unsaturated fluorescence signals were acquired under the same laser intensity at the 12-bit resolution. Fluorescence intensities for identifiable centrosome and kinetochore signals were quantified after the maximum-intensity projection of z-stacks using the Zeiss ZEN v2.1 software (Carl Zeiss Microscopy, LLC). Data were quantified from three independent experiments.

[2] = Solubility in PBS (imaging of insoluble particles, dynamic light scattering); format: physicochemical; conditions: PBS buffer (pH 7.4)
Description: All samples were analyzed after adjusting the concentration to 100 μM solution in the PBS buffer (pH 7.4) containing 1% DMSO. The measurements were carried out at 25 °C using the DynaPro NanoStar system (Wyatt Technology). The intensity of the scattered light was measured as a function of time, and the resulting data were used to calculate the size and distribution of the particles in the sample. Collected data were analyzed using the DYNAMICS software to calculate the mean size and polydispersity index of the particles in the sample. At least three repeat measurements were performed to ensure that the results were accurate and reproducible.
Fig. S1. Solubility and activity of Allopole and its related compounds. (A) Images showing insoluble
particles of 200 µM of the indicated compounds dissolved in the PBS buffer. The aggregates of […]

Compound: Cn1cnc([N+](=O)[O-])c1Sc1nnc2n(CC3CC3)c(=O)c3sc(Cl)cc3n12 [Allopole]
- Level of centrosome-localized mGFP-Plk1 F559D (in words) [1]: failed to alter the level
- Solubility (in words) [2]: greatly increased solubility
